According to ChEMBL document CHEMBL4219148, “Discovery of a highly potent orally bioavailable imidazo-[1, 2-a]pyrazine Aurora inhibitor” (Bioorg Med Chem Lett, 2018):
Converted amounts (≈) assume the structure as drawn. One block for each molecule: values may come before it.

Experiments:
[1] = Clearance in rat at 1 mg/kg, iv; type: ADME, organism-based; conditions: in vivo
[2] = Half life in dog at 1 mg/kg, iv; type: ADME, organism-based, Canis lupus familiaris; conditions: in vivo
[3] = AUC (0 to 48 hrs) in dog at 3 mg/kg, po; type: ADME, organism-based, Canis lupus familiaris; set-up: dose 3 mg/kg, time < 48 hr, route oral; conditions: in vivo
[4] = Protein binding in human plasma; type: ADME, cell-free; conditions: read-out: PPB (converted)
[5] = Oral bioavailability in rat at 3 mg/kg; type: ADME, organism-based; conditions: in vivo
[6] = Kinetic solubility of the compound in sodium phosphate buffer/2% DMSO at pH 7.4 by static light scattering method; type: physicochemical; conditions: read-out: Kinetic_solubility
[7] = Clearance in mouse at 3 mg/kg, iv; type: ADME, organism-based; conditions: in vivo
[8] = Volume of distribution in rat at 1 mg/kg, iv; type: ADME, organism-based; conditions: in vivo
[9] = Volume of distribution in monkey at 1 mg/kg, iv; type: ADME, organism-based, Macaca mulatta; conditions: rhesus monkey, in vivo
[10] = target: Ribosomal protein S6 kinase alpha-3 (Homo sapiens, UniProt P51812); assay: Inhibition of RSK2 (unknown origin)
Ribosomal protein S6 kinase alpha-3, sequence (P51812 whole entry): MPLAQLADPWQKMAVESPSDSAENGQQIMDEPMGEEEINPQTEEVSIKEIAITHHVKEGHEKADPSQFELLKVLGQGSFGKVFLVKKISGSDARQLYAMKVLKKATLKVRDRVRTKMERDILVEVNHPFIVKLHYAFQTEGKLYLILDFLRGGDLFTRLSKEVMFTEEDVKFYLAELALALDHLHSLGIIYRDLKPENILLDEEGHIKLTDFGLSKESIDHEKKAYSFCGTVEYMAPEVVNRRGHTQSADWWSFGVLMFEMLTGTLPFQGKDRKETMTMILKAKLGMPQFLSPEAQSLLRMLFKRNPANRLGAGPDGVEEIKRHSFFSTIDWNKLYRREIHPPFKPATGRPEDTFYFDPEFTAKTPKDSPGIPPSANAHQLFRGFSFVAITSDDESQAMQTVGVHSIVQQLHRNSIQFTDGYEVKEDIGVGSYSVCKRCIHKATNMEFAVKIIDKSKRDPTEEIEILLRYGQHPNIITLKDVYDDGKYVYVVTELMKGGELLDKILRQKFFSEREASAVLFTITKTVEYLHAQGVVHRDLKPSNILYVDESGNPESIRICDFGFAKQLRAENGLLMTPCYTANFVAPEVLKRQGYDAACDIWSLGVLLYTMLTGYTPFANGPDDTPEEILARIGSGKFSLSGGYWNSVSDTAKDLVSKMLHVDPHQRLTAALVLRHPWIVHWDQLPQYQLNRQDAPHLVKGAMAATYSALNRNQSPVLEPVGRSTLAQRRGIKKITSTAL

[11] = Protein binding in rat plasma; type: ADME, cell-free; conditions: read-out: PPB (converted)
Cytochrome P450 2C9 = Cytochrome P450 2C9 (Homo sapiens, UniProt P11712); assay: Inhibition of CYP2C9 in human liver microsomes; type: ADME
Cytochrome P450 2C9, sequence (P11712 whole entry): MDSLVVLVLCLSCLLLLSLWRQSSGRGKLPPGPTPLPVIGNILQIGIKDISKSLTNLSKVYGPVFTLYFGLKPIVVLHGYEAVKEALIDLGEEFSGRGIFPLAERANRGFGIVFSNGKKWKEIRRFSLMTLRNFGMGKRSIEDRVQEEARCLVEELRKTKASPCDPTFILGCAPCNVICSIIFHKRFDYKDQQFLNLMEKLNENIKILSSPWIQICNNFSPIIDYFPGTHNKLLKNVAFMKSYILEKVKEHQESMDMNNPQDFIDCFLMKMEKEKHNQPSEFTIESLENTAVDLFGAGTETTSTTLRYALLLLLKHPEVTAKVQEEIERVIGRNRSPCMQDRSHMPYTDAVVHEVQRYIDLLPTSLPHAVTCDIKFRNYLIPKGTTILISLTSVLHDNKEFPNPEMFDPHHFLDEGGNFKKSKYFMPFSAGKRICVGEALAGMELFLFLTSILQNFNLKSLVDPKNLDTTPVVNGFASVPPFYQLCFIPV

[12] = target: Testis-specific serine/threonine-protein kinase 2 (Homo sapiens, UniProt Q96PF2); assay: Inhibition of TSSK2 (unknown origin)
Testis-specific serine/threonine-protein kinase 2, sequence (Q96PF2 whole entry): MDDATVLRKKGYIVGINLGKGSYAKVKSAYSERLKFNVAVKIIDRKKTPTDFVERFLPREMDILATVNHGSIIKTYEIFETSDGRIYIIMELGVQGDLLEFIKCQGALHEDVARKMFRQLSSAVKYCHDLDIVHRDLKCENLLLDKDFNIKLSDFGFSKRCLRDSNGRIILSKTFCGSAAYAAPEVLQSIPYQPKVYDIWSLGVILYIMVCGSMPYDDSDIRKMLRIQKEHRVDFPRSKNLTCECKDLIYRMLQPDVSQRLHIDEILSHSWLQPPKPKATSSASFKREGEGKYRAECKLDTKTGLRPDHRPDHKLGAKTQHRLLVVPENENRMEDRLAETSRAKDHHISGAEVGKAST

[13] = Clearance in monkey at 1 mg/kg, iv; type: ADME, organism-based, Macaca mulatta; conditions: rhesus monkey, in vivo
[14] = Protein binding in mouse plasma; type: ADME, cell-free; conditions: read-out: PPB (converted)
Cytochrome P450 2C19 = Cytochrome P450 2C19 (Homo sapiens, UniProt P33261); assay: Inhibition of CYP2C19 in human liver microsomes; type: ADME
Cytochrome P450 2C19, sequence (P33261 whole entry): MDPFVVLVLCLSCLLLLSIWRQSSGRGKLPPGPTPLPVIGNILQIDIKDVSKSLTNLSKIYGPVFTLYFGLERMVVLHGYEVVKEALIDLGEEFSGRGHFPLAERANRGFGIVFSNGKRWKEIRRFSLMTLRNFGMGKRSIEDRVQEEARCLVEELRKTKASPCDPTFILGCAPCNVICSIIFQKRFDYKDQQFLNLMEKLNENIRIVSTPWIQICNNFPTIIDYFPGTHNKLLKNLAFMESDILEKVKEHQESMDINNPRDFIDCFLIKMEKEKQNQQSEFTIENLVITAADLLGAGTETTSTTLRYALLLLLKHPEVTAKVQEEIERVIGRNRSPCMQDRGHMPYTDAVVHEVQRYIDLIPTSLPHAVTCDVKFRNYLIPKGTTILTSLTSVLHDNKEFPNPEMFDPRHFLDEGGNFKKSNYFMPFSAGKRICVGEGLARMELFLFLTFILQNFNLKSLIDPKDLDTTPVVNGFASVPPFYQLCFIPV

Aurora kinase A = target: T1, Aurora kinase A (Homo sapiens, UniProt O14965); assay: Binding affinity to Aurora A (unknown origin) after 45 mins by fluorescence-based thermal stability shift assay
T1 sequence (O14965 whole entry): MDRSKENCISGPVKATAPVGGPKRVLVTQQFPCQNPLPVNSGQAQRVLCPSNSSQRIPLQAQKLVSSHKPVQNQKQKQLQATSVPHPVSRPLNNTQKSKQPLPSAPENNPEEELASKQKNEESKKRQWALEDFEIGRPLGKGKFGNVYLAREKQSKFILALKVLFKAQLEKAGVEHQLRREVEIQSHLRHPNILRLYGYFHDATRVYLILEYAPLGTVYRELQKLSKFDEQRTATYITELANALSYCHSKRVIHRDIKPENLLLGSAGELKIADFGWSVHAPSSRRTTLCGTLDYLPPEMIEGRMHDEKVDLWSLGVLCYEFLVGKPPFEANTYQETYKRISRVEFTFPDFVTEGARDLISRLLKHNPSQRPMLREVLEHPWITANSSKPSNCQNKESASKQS

[15] = Oral bioavailability in mouse at 50 mg/kg; type: ADME, organism-based; conditions: in vivo
[16] = Oral bioavailability in monkey at 3 mg/kg; type: ADME, organism-based, Macaca mulatta; conditions: rhesus monkey, in vivo
Cytochrome P450 2D6 = Cytochrome P450 2D6 (Homo sapiens, UniProt P10635); assay: Inhibition of CYP2D6 in human liver microsomes; type: ADME
Cytochrome P450 2D6, sequence (P10635 whole entry): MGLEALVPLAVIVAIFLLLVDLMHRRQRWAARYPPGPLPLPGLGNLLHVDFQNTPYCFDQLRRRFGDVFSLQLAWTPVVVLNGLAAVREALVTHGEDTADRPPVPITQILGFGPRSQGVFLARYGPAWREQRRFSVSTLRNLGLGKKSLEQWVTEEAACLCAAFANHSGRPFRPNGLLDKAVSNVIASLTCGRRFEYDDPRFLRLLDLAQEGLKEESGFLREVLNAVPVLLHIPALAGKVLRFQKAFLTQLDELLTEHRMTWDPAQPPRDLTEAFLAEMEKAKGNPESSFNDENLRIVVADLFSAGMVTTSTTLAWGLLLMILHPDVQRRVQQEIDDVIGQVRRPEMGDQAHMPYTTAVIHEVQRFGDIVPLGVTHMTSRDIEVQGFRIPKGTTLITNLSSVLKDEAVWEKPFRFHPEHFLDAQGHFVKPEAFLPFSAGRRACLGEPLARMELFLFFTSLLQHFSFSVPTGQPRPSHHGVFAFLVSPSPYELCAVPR

Cytochrome P450 3A4 = Cytochrome P450 3A4 (Homo sapiens, UniProt P08684); assay: Inhibition of CYP3A4 in human liver microsomes; type: ADME
Cytochrome P450 3A4, sequence (P08684 whole entry): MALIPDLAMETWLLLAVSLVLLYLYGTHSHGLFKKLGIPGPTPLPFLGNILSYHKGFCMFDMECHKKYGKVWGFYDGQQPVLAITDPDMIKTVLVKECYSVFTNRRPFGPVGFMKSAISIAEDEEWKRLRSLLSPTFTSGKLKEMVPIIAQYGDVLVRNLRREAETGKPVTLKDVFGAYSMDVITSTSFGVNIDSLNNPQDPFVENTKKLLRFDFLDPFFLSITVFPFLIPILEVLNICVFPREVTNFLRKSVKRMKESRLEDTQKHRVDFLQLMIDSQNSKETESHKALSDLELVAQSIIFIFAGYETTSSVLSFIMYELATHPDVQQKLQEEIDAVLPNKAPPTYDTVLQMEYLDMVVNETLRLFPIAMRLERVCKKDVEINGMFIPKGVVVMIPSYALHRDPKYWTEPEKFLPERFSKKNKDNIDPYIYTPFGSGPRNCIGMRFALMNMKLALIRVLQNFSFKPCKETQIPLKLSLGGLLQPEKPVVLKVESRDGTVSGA

[17] = AUC (0 to 6 hrs) in rat at 10 mg/kg, po; type: ADME, organism-based; set-up: time < 6 hr, dose 10 mg/kg, route oral; conditions: in vivo
[18] = AUC (0 to 48 hrs) in rat at 1 mg/kg, iv; type: ADME, organism-based; set-up: time < 48 hr, dose 1 mg/kg, route intravenous; conditions: in vivo
[19] = AUC (0 to 24 hrs) in mouse at 50 mg/kg, po; type: ADME, organism-based; set-up: time < 24 hr, dose 50 mg/kg, route oral; conditions: in vivo
[20] = Half life in rat at 1 mg/kg, iv; type: ADME, organism-based; conditions: in vivo
[21] = AUC (0 to 48 hrs) in rat at 3 mg/kg, po; type: ADME, organism-based; set-up: dose 3 mg/kg, time < 48 hr, route oral; conditions: in vivo
A2780 [22] = assay: Antitumor activity against human A2780 cells xenografted in nu/nu mouse assessed as tumor growth inhibition at 300 mg/kg, po bid; type: functional; conditions: read-out: TGI
[23] = Volume of distribution in rat at 10 mg/kg, iv; type: ADME, organism-based; conditions: in vivo
[24] = Oral bioavailability in rat at 30 mg/kg; type: ADME, organism-based; conditions: in vivo
[25] = Intrinsic clearance in cryopreserved monkey hepatocytes assessed per million cells; type: ADME, cell-based, Macaca mulatta, Hepatocyte; conditions: rhesus monkey, read-out: CLH
[26] = Clearance in rat at 10 mg/kg, iv; type: ADME, organism-based; conditions: in vivo
[27] = target: Ribosomal protein S6 kinase; assay: Inhibition of S6K (unknown origin); type: protein assay, Homo sapiens
[28] = Intrinsic clearance in cryopreserved rat hepatocytes assessed per million cells; type: ADME, cell-based, Hepatocyte; conditions: read-out: CLH
A2780 [29] = assay: Antitumor activity against human A2780 cells xenografted in nu/nu mouse assessed as tumor growth inhibition at 10 mg/kg, po bid for 3 days; type: functional; conditions: 72 h, read-out: TGI
[30] = Intrinsic clearance in cryopreserved dog hepatocytes assessed per million cells; type: ADME, cell-based, Canis lupus familiaris, Hepatocyte; conditions: read-out: CLH
[31] = target: Interleukin-1 receptor-associated kinase 4 (Homo sapiens, UniProt Q9NWZ3); assay: Inhibition of IRAK4 (unknown origin)
Interleukin-1 receptor-associated kinase 4, sequence (Q9NWZ3 whole entry): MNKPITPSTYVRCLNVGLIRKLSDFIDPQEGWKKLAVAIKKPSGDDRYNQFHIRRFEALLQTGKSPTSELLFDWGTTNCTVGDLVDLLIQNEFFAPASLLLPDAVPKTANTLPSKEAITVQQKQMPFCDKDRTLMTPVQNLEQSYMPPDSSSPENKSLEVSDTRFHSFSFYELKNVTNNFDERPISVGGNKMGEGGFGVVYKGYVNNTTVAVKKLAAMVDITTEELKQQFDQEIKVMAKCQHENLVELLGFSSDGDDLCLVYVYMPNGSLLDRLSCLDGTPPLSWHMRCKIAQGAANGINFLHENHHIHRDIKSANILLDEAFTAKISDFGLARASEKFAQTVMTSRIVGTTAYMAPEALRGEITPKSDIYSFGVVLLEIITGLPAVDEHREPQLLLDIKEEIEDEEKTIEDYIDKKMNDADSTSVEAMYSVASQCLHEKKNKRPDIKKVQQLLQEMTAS

HCT-116 = assay: Induction of endoreduplication in human HCT116 cells assessed as accumulation of >=4 N DNA preincubated for 24 hrs followed by compound washout by FACS analysis; type: functional
[32] = AUC (0 to 48 hrs) in monkey at 10 mg/kg, po; type: ADME, organism-based, Macaca mulatta; set-up: time < 48 hr, dose 10 mg/kg, route oral; conditions: rhesus monkey, in vivo
Mus musculus [33] = assay: Toxicity in nu/nu mouse xenografted with human A2780 cells assessed as body weight loss at 10 mg/kg, po bid after 3 days; type: organism-based; conditions: in vivo, 72 h
Rattus norvegicus = assay: AUC (0 to 24 hrs) in rat at 30 mg/kg, po; type: ADME, organism-based; set-up: time < 24 hr, dose 30 mg/kg, route oral; conditions: in vivo, 24 h
Mus musculus [34] = assay: Toxicity in nu/nu mouse xenografted with human A2780 cells assessed as death at 10 to 25 mg/kg, po after 3 days; type: organism-based; conditions: in vivo, 72 h
A2780 [35] = assay: Antitumor activity against human A2780 cells xenografted in nu/nu mouse assessed as tumor growth inhibition at 25 mg/kg, po qd for 3 days; type: functional; conditions: 72 h, read-out: TGI
[36] = Equilibrium solubility of the compound in citrate buffer at pH 5.3 by HPLC method; type: physicochemical
[37] = Intrinsic clearance in cryopreserved human hepatocytes assessed per million cells; type: ADME, cell-based, Hepatocyte; conditions: read-out: CLH
[38] = Half life in rat at 10 mg/kg, iv; type: ADME, organism-based; conditions: in vivo
[39] = AUC (0 to 24 hrs) in rat at 10 mg/kg, iv; type: ADME, organism-based; set-up: time < 24 hr, dose 10 mg/kg, route intravenous; conditions: in vivo
[40] = Oral bioavailability in monkey at 10 mg/kg; type: ADME, organism-based, Macaca mulatta; conditions: rhesus monkey, in vivo
A2780 [41] = assay: Antitumor activity against human A2780 cells xenografted in nu/nu mouse assessed as tumor growth inhibition at 10 mg/kg, ip bid for 3 days; type: functional; conditions: 72 h, read-out: TGI
Mus musculus [42] = assay: Toxicity in nu/nu mouse xenografted with human A2780 cells assessed as body weight loss at 25 mg/kg, po qd after 3 days; type: organism-based; conditions: in vivo, 72 h

clearance [1]: 15 mL/min/kg
half-life [2]: 0.8 h
AUC(0-t) at 48 h [3]: 4.1 µM·h
fraction unbound [4]: 0.009
bioavailability [5]: 10%
solubility kinetic [6]: 20 µM (≈ 7.77 µg/mL)
clearance [7]: 118 mL/min/kg
Vd [8]: 0.7 L/kg
Vd [9]: 1 L/kg
IC50 [10]: 260 nM
fraction unbound [11]: 0.004
IC50 (Cytochrome P450 2C9): > 20000 nM
IC50 [12]: > 500 nM
clearance [13]: 28 mL/min/kg
fraction unbound [14]: 0.028
IC50 (Cytochrome P450 2C19): > 20000 nM
Kd (Aurora kinase A): 0.01 nM
bioavailability [15]: 77%
bioavailability [16]: 0%
IC50 (Cytochrome P450 2D6): > 20000 nM
IC50 (Cytochrome P450 3A4): > 20000 nM
AUC(0-t) at 6 h [17]: 17.7 µM·h
AUC(0-t) at 48 h [18]: 2.8 µM·h
AUC(0-t) at 24 h [19]: 14.1 µM·h
half-life [20]: 0.7 h
AUC(0-t) at 48 h [21]: 0.8 µM·h
Structure (SMILES): Cc1cn2c(-c3cn[nH]c3)cnc2c(Nc2cc(Cc3ccccn3)ns2)n1
inhibition in vivo at 300 mg/kg (A2780 [22]): 61%

IC50 [10]: 180 nM
IC50 [12]: > 500 nM
Structure (SMILES): CCN(CCO)Cc1cc(Nc2nc(C)cn3c(-c4cn[nH]c4)cnc23)sn1

Structure (SMILES): Cc1cn2c(-c3cn[nH]c3)cnc2c(Nc2cc(C(NC(C)(C)C)c3ccccn3)ns2)n1 (single isomer, unassigned; (+))
Vd [23]: 2.5 L/kg
bioavailability [24]: 40%
hepatocyte CLint [25]: 27.6 µL/min/1e6 cells
clearance [26]: 11 mL/min/kg
IC50 [27]: > 1000 nM
half-life [2]: 4.6 h
hepatocyte CLint [28]: 11.5 µL/min/1e6 cells
inhibition in vivo at 10 mg/kg (A2780 [29]): 79%
hepatocyte CLint [30]: 5.1 µL/min/1e6 cells
AUC(0-t) at 48 h [3]: 10.1 µM·h
fraction unbound [4]: 0.012
IC50 [31]: 380 nM
Cmin (HCT-116): 6 nM
AUC(0-t) at 48 h [32]: 4 µM·h
Activity (Mus musculus [33]): 10%
clearance [7]: 50 mL/min/kg
Vd [9]: 1.3 L/kg
fraction unbound [11]: 0.01
AUC (Rattus norvegicus): 41 µM·h
Activity (Mus musculus [34]): Toxic
inhibition in vivo at 25 mg/kg (A2780 [35]): 86%
IC50 (Cytochrome P450 2C9): 6000 nM
clearance [13]: 7.4 mL/min/kg
fraction unbound [14]: 0.028
solubility thermodynamic [36]: 5300 µg/mL (≈ 11.5 mM)
hepatocyte CLint [37]: 11.8 µL/min/1e6 cells
Kd (Aurora kinase A): 0.01 nM
bioavailability [15]: 64%
half-life [38]: 2.6 h
IC50 (Cytochrome P450 2D6): 11500 nM
AUC(0-t) at 24 h [39]: 33 µM·h
IC50 (Cytochrome P450 3A4): > 20000 nM
bioavailability [40]: 8%
AUC(0-t) at 24 h [19]: 23.5 µM·h
inhibition in vivo at 10 mg/kg (A2780 [41]): 94%
Activity (Mus musculus [42]): 10%
